Measurements from patent US10519177B2, “Heterocyclic compounds and uses thereof” (Plexxikon Inc., priority 2013, dated 2019).

biological target: BRD4-BD1 (44-164) (Homo sapiens (Human), UniProt O60885); experiment: Alphascreen binding assay BRD4-BD1; settings: BRD4(1) H4; read-out: Biochemical activity (IC50 μM) BRD4(1) H4
Method in brief: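 His-tagged E. coli-expressed BRD4 BD1 (44-164) or BD1-BD2 (1-477) incubated 1 h at room temperature with biotinylated tetra-acetylated histone H4 1-21 peptide and compound in HEPES pH 7.5, NaCl, BSA, Triton X-100, DTT buffer. Ni-chelate/streptavidin AlphaScreen beads (7.5 µg/ml) added, read after 30 min; pIC50 from four-parameter fit.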

Row | Structure (SMILES) | IC50
1 | Cc1noc(C)c1-c1cnc2c(-c3cnn(C)c3)cn(Cc3cc(F)ccc3Cl)c2c1 [P-0190, 4-[1-[(2-chloro-5-fluoro-phenyl)methyl]-3-(1-methylpyrazol-4-yl)pyrrolo[3,2-b]pyridin-6-yl]-3,5-dimethyl-isoxazole] | < 1 µM
2 | Cc1noc(C)c1-c1cnc2[nH]c(-c3ccc(F)cc3)c(Cc3cccnc3)c2c1 [P-0007, 4-[2-(4-fluorophenyl)-3-(3-pyridylmethyl)-1H-pyrrolo[2,3-b]pyridin-5-yl]-3,5-dimethyl-isoxazole] | < 1 µM
3 | C=CCn1cc(-c2cn(S(=O)(=O)CC3CC3)c3cc(-c4c(C)noc4C)cnc23)cn1 [P-0140, 4-[3-(1-allylpyrazol-4-yl)-1-(cyclopropyl-methylsulfonyl)pyrrolo[3,2-b]pyridin-6-yl]-3,5-dimethyl-isoxazole] | < 1 µM
4 | Cc1noc(C)c1-c1cnc2c(-c3cnn(CC(F)(F)F)c3)cn(S(=O)(=O)C3CCCC3)c2c1 [P-0149, 4-[1-cyclopentyl-sulfonyl-3-[1-(2,2,2-trifluoroethyl)pyrazol-4-yl]pyrrolo[3,2-b]pyridin-6-yl]-3,5-dimethyl-isoxazole] | < 1 µM
5 | Cc1noc(C)c1-c1cnc2c(-c3ccccc3)cn(S(=O)(=O)c3ccccc3)c2c1 [P-0077, 4-[1-(benzenesulfonyl)-3-phenyl-pyrrolo[3,2-b]pyridin-6-yl]-3,5-dimethyl-isoxazole] | < 1 µM
6 | Cc1noc(C)c1-c1cnc2c(-c3cccnc3)cn(S(=O)(=O)c3ccccc3)c2c1 [P-0084, 4-[1-(benzenesulfonyl)-3-(3-pyridyl)pyrrolo[3,2-b]pyridin-6-yl]-3,5-dimethyl-isoxazole] | < 1 µM
7 | C=CCn1cc(-c2cn(S(=O)(=O)C3CC3)c3cc(-c4c(C)noc4C)cnc23)cn1 [P-0139, 4-[3-(1-allylpyrazol-4-yl)-1-cyclopropyl-sulfonyl-pyrrolo[3,2-b]pyridin-6-yl]-3,5-dimethyl-isoxazole] | < 1 µM
8 | COc1ncc(F)cc1C(OC)c1c[nH]c2ncc(-c3c(C)noc3C)cc12 (stereo not drawn) [P-0011, 4-[3-[(5-fluoro-2-methoxy-3-pyridyl)-methoxy-methyl]-1H-pyrrolo[2,3-b]pyridin-5-yl]-3,5-dimethyl-isoxazole] | < 1 µM
9 | Cc1noc(C)c1-c1cnc2c(-c3cn[nH]c3)cn(S(=O)(=O)c3ccccc3)c2c1 [P-0163, 4-[1-(benzenesulfonyl)-3-(1H-pyrazol-4-yl)pyrrolo[3,2-b]pyridin-6-yl]-3,5-dimethyl-isoxazole] | < 1 µM
10 | Cc1noc(C)c1-c1cnc2c(C#CCO)cn(S(=O)(=O)c3ccccc3)c2c1 [P-0155, 3-[1-(benzenesulfonyl)-6-(3,5-dimethylisoxazol-4-yl)pyrrolo[3,2-b]pyridin-3-yl]prop-2-yn-1-ol] | < 1 µM
11 | Cc1noc(C)c1-c1cnc2c(-c3cnn(C)c3)cn(CC3CCC(F)(F)CC3)c2c1 [P-0209, 4-[1-[(4,4-difluorocyclohexyl)methyl]-3-(1-methylpyrazol-4-yl)pyrrolo[3,2-b]pyridin-6-yl]-3,5-dimethyl-isoxazole] | < 1 µM
12 | Cc1noc(C)c1-c1cnc2c(c1)c(Sc1ccccc1)cn2-c1cnn(C)c1 [P-0184, 3,5-dimethyl-4-[1-(1-methylpyrazol-4-yl)-3-phenylsulfanyl-pyrrolo[2,3-b]pyridin-5-yl]isoxazole] | < 1 µM
13 | Cc1noc(C)c1-c1cnc2c(C#CCO)cn(S(=O)(=O)C3CCCC3)c2c1 [P-0156, 3-[1-cyclopentylsulfonyl-6-(3,5-dimethylisoxazol-4-yl)pyrrolo[3,2-b]pyridin-3-yl]prop-2-yn-1-ol] | < 1 µM
14 | Cc1noc(C)c1-c1cnc2[nH]cc(C(C)(C)c3ccc(F)cc3)c2c1 [P-0063, 4-[3-[1-(4-fluorophenyl)-1-methyl-ethyl]-1H-pyrrolo[2,3-b]pyridin-5-yl]-3,5-dimethyl-isoxazole] | < 1 µM
15 | CCCS(=O)(=O)n1cc(-c2cnn(C3CCOC3)c2)c2ncc(-c3c(C)noc3C)cc21 (stereo not drawn) [P-0154, 3,5-dimethyl-4-[1-propylsulfonyl-3-(1-tetrahydrofuran-3-ylpyrazol-4-yl)pyrrolo[3,2-b]pyridin-6-yl]isoxazole] | < 1 µM
16 | C=CCn1cc(-c2cn(S(=O)(=O)C(C)CC)c3cc(-c4c(C)noc4C)cnc23)cn1 (stereo not drawn) [P-0138, 4-[3-(1-allylpyrazol-4-yl)-1-sec-butyl-sulfonyl-pyrrolo[3,2-b]pyridin-6-yl]-3,5-dimethyl-isoxazole] | < 1 µM
17 | Cc1noc(C)c1-c1cnc2c(-c3cnn(C4CCOC4)c3)cn(C(C)c3ccccc3)c2c1 (stereo not drawn) [P-0204, 3,5-dimethyl-4-[1-(1-phenyl-ethyl)-3-(1-tetrahydrofuran-3-ylpyrazol-4-yl)pyrrolo[3,2-b]pyridin-6-yl]isoxazole] | < 1 µM
18 | CC(=O)N1CCC(Cc2cn(C)c3ncc(-c4c(C)noc4C)cc23)CC1 [P-0120, 1-[4-[[5-(3,5-dimethylisoxazol-4-yl)-1-methyl-pyrrolo[2,3-b]pyridin-3-yl]methyl]-1-piperidyl]ethanone] | < 1 µM
19 | Cc1noc(C)c1-c1cnc2c(-c3cnn(C)c3)cn(Cc3c(Cl)cccc3Cl)c2c1 [P-0189, 4-[1-[(2,6-dichlorophenyl)methyl]-3-(1-methylpyrazol-4-yl)pyrrolo[3,2-b]pyridin-6-yl]-3,5-dimethyl-isoxazole] | < 1 µM
20 | Cc1noc(C)c1-c1cnc2c(-c3cnn(C)c3)cn(S(=O)(=O)c3cccc(F)c3)c2c1 [P-0122, 4-[1-(3-fluorophenyl)sulfonyl-3-(1-methyl-pyrazol-4-yl)pyrrolo[3,2-b]pyridin-6-yl]-3,5-dimethyl-isoxazole] | < 1 µM
21 | COC(c1c[nH]c2ncc(-c3c(C)noc3C)cc12)C1CCS(=O)(=O)CC1 (stereo not drawn) [P-0089, 4-[[5-(3,5-dimethylisoxazol-4-yl)-1H-pyrrolo[2,3-b]pyridin-3-yl]-methoxy-methyl]thiane 1,1-dioxide] | < 1 µM
22 | COC(c1ccc(C(F)(F)F)nc1)c1c[nH]c2ncc(-c3c(C)noc3C)cc12 (stereo not drawn) [P-0013, 4-[3-[methoxy-[6-(trifluoromethyl)-3-pyridyl]methyl]-1H-pyrrolo[2,3-b]pyridin-5-yl]-3,5-dimethyl-isoxazole] | < 1 µM
23 | Cc1noc(C)c1-c1cnc2[nH]cc(Cc3cccnc3)c2c1 [P-0003, 3,5-dimethyl-4-[3-(3-pyridylmethyl)-1H-pyrrolo[2,3-b]pyridin-5-yl]isoxazole] | < 1 µM
24 | Cc1noc(C)c1-c1cnc2c(-c3cnn(C(F)F)c3)cn(S(=O)(=O)c3ccccc3F)c2c1 [P-0132, 4-[3-[1-(difluoromethyl)pyrazol-4-yl]-1-(2-fluorophenyl)sulfonyl-pyrrolo[3,2-b]pyridin-6-yl]-3,5-dimethyl-isoxazole] | < 1 µM
25 | Cc1noc(C)c1-c1cnc2c(-c3cnn(C(F)F)c3)cn(S(=O)(=O)C3CCCC3)c2c1 [P-0133, 4-[1-cyclopentylsulfonyl-3-[1-(difluoromethyl)pyrazol-4-yl]pyrrolo[3,2-b]pyridin-6-yl]-3,5-dimethyl-isoxazole] | < 1 µM
26 | COCCn1cc(-c2cn(C(C)c3ccccc3)c3cc(-c4c(C)noc4C)cnc23)cn1 (stereo not drawn) [P-0203, 4-[3-[1-(2-methoxyethyl)pyrazol-4-yl]-1-(1-phenyl-ethyl)pyrrolo[3,2-b]pyridin-6-yl]-3,5-dimethyl-isoxazole] | < 1 µM
27 | Cc1noc(C)c1-c1cnc2c(-c3cnn(C)c3)cn(Cc3ccccc3F)c2c1 [P-0172, 4-[1-[(2-fluorophenyl)methyl]-3-(1-methylpyrazol-4-yl)pyrrolo[3,2-b]pyridin-6-yl]-3,5-dimethyl-isoxazole] | < 1 µM
